As usually defined, the IC50 is the midpoint of a concentration-inhibition curve. Usually inhibition stands for the drop in the measured response relative to a control, in per cent. The % inhibition is the percentage by which the read-out fell short of the control. The low end stands for little suppression, the high end for strong suppression.

Like-named read-outs stand apart in the source and are kept apart here.

Here are results for 13 compounds from publication PMC6163091 (Chemical biology & drug design, 2018).

The target of test [1] is guanosine/adenosine/cytidine nucleoside hydrolase (GACNH) (Trichomonas vaginalis, UniProt A2DN71). The experiment in a line: 1H NMR-based activity assay of GACNH. It counts as biochemical. To be noted: for inhibition at 250 µM: read-out: % inhibition at 250 μM against GACNH.
In test [2] the target is T1, adenosine/guanosine nucleoside hydrolase (AGNH) (Trichomonas vaginalis, UniProt A2EYV3).
T1 sequence (A2EYV3 1-304): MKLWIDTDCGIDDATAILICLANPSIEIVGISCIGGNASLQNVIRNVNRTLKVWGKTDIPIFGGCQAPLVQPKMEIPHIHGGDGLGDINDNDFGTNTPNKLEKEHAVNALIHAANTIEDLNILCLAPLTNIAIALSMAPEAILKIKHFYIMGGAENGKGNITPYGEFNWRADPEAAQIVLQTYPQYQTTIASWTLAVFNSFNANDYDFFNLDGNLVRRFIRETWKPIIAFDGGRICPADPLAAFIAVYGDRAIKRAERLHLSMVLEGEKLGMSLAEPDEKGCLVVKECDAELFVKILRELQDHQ
The experiment in a line: 1H NMR activity assay of AGNH. It counts as biochemical. The note with it: for inhibition at 250 µM: read-out: % inhibition at 250 μM against AGNH.

For test [3], the system named is uridine nucleoside hydrolase (UNH). The experiment in a line: 19F NMR activity assay of UNH. It counts as biochemical, Trichomonas vaginalis. To be noted: 250 μM compound; NM = not measurable (percent inhibition < 10%).
The test system is the same in test [4]. To be noted: NMR screen of NIH Clinical Collection; cited from earlier work.
Where [5] appears, read: IC50 (μM) with Triton, GACNH, in the presence of 0.01% Triton X-100.
Setting [6] is: IC50 against GACNH, ribavirin analogs, Table 2.
Where [7] appears, read: carboxamidine in place of carboxamide.

On to `O=C1c2c(O)cc(O)cc2O[C@H](c2ccc(O)c(O)c2)[C@H]1O` (racemic) [(±)-Taxifolin], for which the IC50 in test [1] (read-out: IC50 (μM) with Triton, GACNH, in the presence of 0.01% Triton X-100) came out at 41.6 ± 20.4 µM.
On to `NC(=O)c1ncn([C@@H]2O[C@H](CO)[C@@H](O)[C@H]2O)c1N` [Acadesine], for which the inhibition at 250 µM is 70% in test [1] and < 10% in test [2]. For the same compound, the “% inhibition at 250 μM against UNH” value in test [3] stood at 51%.
Regarding `CCc1oc2ccccc2c1C(=O)c1cc(Br)c(O)c(Br)c1` [Benzbromarone], the IC50 in test [1] (setting [5]) was determined as 134 ± 32.7 µM.
Same read-out and setting: the value for `OC[C@H]1O[C@@H](n2cnc3c(NC4CCCC4)nc(Cl)nc32)[C@H](O)[C@@H]1O` [CCPA, 2-chloro-N(6)-cyclopentyladenosine] was 14 ± 5.8 µM; that for `O=c1c(O[C@@H]2O[C@H](CO)[C@H](O)[C@H](O)[C@H]2O)c(-c2ccc(O)c(O)c2)oc2cc(O)cc(O)c12` [Hyperoside] was 22.6 ± 7.6 µM; that for `COc1ccc(-c2oc3c(CC=C(C)C)c(O[C@@H]4O[C@H](CO)[C@@H](O)[C@H](O)[C@H]4O)cc(O)c3c(=O)c2O[C@@H]2O[C@@H](C)[C@H](O)[C@@H](O)[C@H]2O)cc1` [Icariin] was 5 ± 1.7 µM.
Regarding `O=c1c(O[C@@H]2O[C@H](CO)[C@@H](O)[C@H](O)[C@H]2O)c(-c2ccc(O)c(O)c2)oc2cc(O)cc(O)c12` [Isoquercitrin], the IC50 in test [1] (setting [5]) stood at 2.2 ± 0.6 µM.
`NC(=O)c1ncn([C@@H]2O[C@H](CO)[C@@H](O)[C@H]2O)c1O` [Mizoribine]: the inhibition at 250 µM in test [1] and in test [2] was < 10% each time. Further, in test [3], the “% inhibition at 250 μM against UNH” value is “NM (Not measurable (percent inhibition < 10%))”.
As for `NC(=O)c1ncn([C@@H]2O[C@H](CO)[C@@H](O)[C@H]2O)n1` [Ribavirin], the IC50 in test [1] (setting [5]) was found to be 9 ± 3.3 µM; in test [1] (setting [6]), 8.6 ± 4.4 µM. In addition, in test [1] (screen of NIH Clinical Collection, 50 μM compound, 100 μM adenosine, 40 min), the “GACNH inhibition in screen” value was “significant inhibition”. Further, the inhibition at 250 µM in test [2] was 83%. In addition, the “% inhibition at 250 μM against UNH” value in test [3] worked out at 58%.
For `N=C(N)c1ncn([C@@H]2O[C@H](CO)[C@@H](O)[C@H]2O)n1` [Viramidine], the figures for the IC50 in test [1] (setting [6]) and in test [2] were 1.1 ± 0.6 µM and 0.12 ± 0.03 µM, respectively. Besides, in test [1] (setting [7]), the “enhancement of potency against GACNH relative to ribavirin” value is “about 10 fold”. Further, in test [2] (setting [7]), the “enhancement of potency against AGNH relative to ribavirin” value is recorded as “more than 100 fold”. The “selectivity toward AGNH over GACNH” value in test [2] (from IC50 values) is 10 fold. For the same compound, in test [3], the “% inhibition at 250 μM against UNH” value is reported as 55%.
`COc1ccc2[nH]c([S+]([O-])Cc3ncc(C)c(OC)c3C)nc2c1` (centres unmarked) [omeprazole]: the “inhibition of UNH (earlier screen)” value in test [4] was “potent inhibitors”.
For `COc1ccnc(C[S+]([O-])c2nc3ccc(OC(F)F)cc3[nH]2)c1OC` (centres unmarked) [pantoprazole], in test [4], the “inhibition of UNH (earlier screen)” value was “potent inhibitors”.
Turning to `COCCCOc1ccnc(C[S+]([O-])c2nc3ccccc3[nH]2)c1C` (centres unmarked) [rabeprazole], the “inhibition of UNH (earlier screen)” value in test [4] is on record as “potent inhibitors”.
